Where a SMILES comes first, the peptide text is derived from it. Bridges are numbered along the chain shown (N, C = ends). [ ]: non-standard residue; d: D form. The star is where a group is joined. Val(Nα-amidino) = CC(C)[C@H](NC(=N)N)C(=O)*; Dab(iPr) = CC(C)NCC[C@H](N)C(=O)O; Hyp = O=C(O)[C@@H]1C[C@@H](O)CN1; Pen = CC(C)(S)[C@H](N)C(=O)O; dDab = NCC[C@@H](N)C(=O)O; Orn = NCCC[C@H](N)C(=O)O; Dab = NCC[C@H](N)C(=O)O
Tests used:
Assay type in all cases: cell-based
[1] = system: Escherichia coli ATCC 25922; conditions: ATCC 25922
Summary of the method: (§1)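 CLSI broth microdilution, slightly modified: cation-adjusted Mueller-Hinton II broth with about 5×10^5 CFU/mL from a 0.5 McFarland suspension, and two-fold serial peptide dilutions with Polysorbate 80 at 0.002% final. MIC (μg/mL) was the lowest concentration with no visible growth after 18-20 hours at 35° C.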

[2] = system: Escherichia coli MCR-1 Af 45; conditions: MCR-1 Af 45
Summary of the method: as §1

[3] = system: Klebsiella pneumoniae SSI3010; conditions: SSI3010
Summary of the method: as §1

[4] = system: human red blood cells (hRBC); conditions: red cells of human, 1 h, 200 μg/mL
Summary of the method: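 Peptides at 200 μg/mL incubated 1 h at 37 °C with 20% (v/v) washed human RBC, shaking. Hemolysis from supernatant OD540, expressed as percent of 2.5% Triton X-100 lysis, with PBS as 0%.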

CC[C@H](C)[C@H](NC(=O)[C@@H]1C[C@@H](O)CN1C(=O)[C@@H](N)C(C)C)C(=O)N[C@H]1CSSC[C@@H](C(=O)N[C@@H](Cc2ccc(O)cc2)C(=O)O)NC(=O)[C@H](CCN)NC(=O)[C@H](CCN)NC(=O)[C@H](CCCCN)NC(=O)[C@@H](CCN)NC(=O)[C@H]([C@@H](C)O)NC(=O)[C@H](CCN)NC(=O)[C@H](CCCNC(=N)N)NC(=O)[C@H](CC(N)=O)NC(=O)[C@H](CO)NC(=O)[C@H](Cc2ccc(O)cc2)NC1=O [Example 11, Val-Hyp-Ile-Cys-Tyr-Ser-Asn-Arg-Dab-Thr-^DDab-Lys-Dab-Dab-Cys-Tyr] (H-V[Hyp]ICYSNR[Dab]T[dDab]K[Dab][Dab]CY-OH; disulfide 4-15)
Escherichia coli ATCC 25922 MIC [1]: 0.5 µg/mL | Escherichia coli MCR-1 Af45 MIC [2]: 0.25 µg/mL | Klebsiella pneumoniae SSI3010 MIC [3]: 0.5 µg/mL | Hemolysis at 0.2 g/L [4]: <1%

CC[C@H](C)[C@H](NC(=O)[C@@H]1C[C@@H](O)CN1C(=O)[C@@H](NC(=N)N)C(C)C)C(=O)N[C@@H]1C(=O)N[C@@H](Cc2ccc(O)cc2)C(=O)N[C@@H]([C@@H](C)O)C(=O)N[C@@H](CC(N)=O)C(=O)N[C@@H](CCCNC(=N)N)C(=O)N[C@@H](CCNC(C)C)C(=O)N[C@@H]([C@@H](C)O)C(=O)N[C@H](CCN)C(=O)N[C@@H](CO)C(=O)N[C@@H](CCN)C(=O)N[C@@H](CCN)C(=O)N[C@H](C(=O)N[C@@H](Cc2ccc(O)cc2)C(=O)O)CSSC1(C)C [Example 93, Gua-Val-Hyp-Ile-Pen-Tyr-Thr-Asn-Arg-Dab(iPr)-Thr-^DDab-Ser-Dab-Dab-Cys-Tyr] ({Val(Nα-amidino)}-[Hyp]I[Pen]YTNR[Dab(iPr)]T[dDab]S[Dab][Dab]CY-OH; disulfide 3-14)
Escherichia coli ATCC 25922 MIC [1]: 0.25 µg/mL | Escherichia coli MCR-1 Af45 MIC [2]: 0.25 µg/mL | Klebsiella pneumoniae SSI3010 MIC [3]: 0.5 µg/mL | Hemolysis at 0.2 g/L [4]: <1%

CC[C@H](C)[C@H](NC(=O)[C@@H]1C[C@@H](O)CN1C(=O)[C@@H](N)C(C)C)C(=O)N[C@@H]1C(=O)N[C@@H](Cc2ccc(O)cc2)C(=O)N[C@@H](CO)C(=O)N[C@@H](CC(N)=O)C(=O)N[C@@H](CCCNC(=N)N)C(=O)N[C@@H](CCN)C(=O)N[C@@H]([C@@H](C)O)C(=O)N[C@H](CCN)C(=O)N[C@@H](CCCCN)C(=O)N[C@@H](CCN)C(=O)N[C@H](CCN)C(=O)N[C@H](C(=O)N[C@@H](Cc2ccc(O)cc2)C(=O)O)CSSC1(C)C [Example 58, Val-Hyp-Ile-Pen-Tyr-Ser-Asn-Arg-Dab-Thr-^DDab-Lys-Dab-^DDab-Cys-Tyr] (H-V[Hyp]I[Pen]YSNR[Dab]T[dDab]K[Dab][dDab]CY-OH; disulfide 4-15)
Escherichia coli ATCC 25922 MIC [1]: 0.125 µg/mL | Escherichia coli MCR-1 Af45 MIC [2]: 0.125 µg/mL | Klebsiella pneumoniae SSI3010 MIC [3]: 0.25 µg/mL | Hemolysis at 0.2 g/L [4]: <1%

CC[C@H](C)[C@H](NC(=O)[C@@H]1C[C@@H](O)CN1C(=O)[C@@H](N)C(C)C)C(=O)N[C@H]1CSSC(C)(C)[C@@H](C(=O)N[C@@H](Cc2ccc(O)cc2)C(=O)O)NC(=O)[C@H](CCN)NC(=O)[C@H](CCN)NC(=O)[C@H](CCCCN)NC(=O)[C@@H](CCN)NC(=O)[C@H]([C@@H](C)O)NC(=O)[C@H](CCN)NC(=O)[C@H](CCCNC(=N)N)NC(=O)[C@H](CC(N)=O)NC(=O)[C@H](CO)NC(=O)[C@H](Cc2ccc(O)cc2)NC1=O [Example 12, Val-Hyp-Ile-Cys-Tyr-Ser-Asn-Arg-Dab-Thr-^DDab-Lys-Dab-Dab-Pen-Tyr] (H-V[Hyp]ICYSNR[Dab]T[dDab]K[Dab][Dab][Pen]Y-OH; disulfide 4-15)
Escherichia coli ATCC 25922 MIC [1]: 0.25 µg/mL | Escherichia coli MCR-1 Af45 MIC [2]: 0.125 µg/mL | Klebsiella pneumoniae SSI3010 MIC [3]: 0.5 µg/mL | Hemolysis at 0.2 g/L [4]: <1%

CC[C@H](C)[C@H](NC(=O)[C@@H]1C[C@@H](O)CN1C(=O)[C@@H](NC(=N)N)C(C)C)C(=O)N[C@@H]1C(=O)N[C@@H](Cc2ccc(O)cc2)C(=O)N[C@@H](CO)C(=O)N[C@@H](CC(N)=O)C(=O)N[C@@H](CCCNC(=N)N)C(=O)N[C@@H](CCN)C(=O)N[C@@H]([C@@H](C)O)C(=O)N[C@H](CCN)C(=O)N[C@@H](CCN)C(=O)N[C@@H](CCN)C(=O)N[C@@H](CCN)C(=O)N[C@H](C(=O)N[C@@H](Cc2ccc(O)cc2)C(=O)O)CSSC1(C)C [Example 125, Gua-Val-Hyp-Ile-Pen-Tyr-Ser-Asn-Arg-Dab-Thr-^DDab-Dab-Dab-Dab-Cys-Tyr] ({Val(Nα-amidino)}-[Hyp]I[Pen]YSNR[Dab]T[dDab][Dab][Dab][Dab]CY-OH; disulfide 3-14)
Escherichia coli ATCC 25922 MIC [1]: 0.125 µg/mL | Escherichia coli MCR-1 Af45 MIC [2]: 0.03125 µg/mL | Klebsiella pneumoniae SSI3010 MIC [3]: 0.125 µg/mL | Hemolysis at 0.2 g/L [4]: <1%

CC[C@H](C)[C@H](NC(=O)[C@@H]1C[C@@H](O)CN1C(=O)[C@@H](N)C(C)C)C(=O)N[C@@H]1C(=O)N[C@@H](Cc2ccc(O)cc2)C(=O)N[C@@H](CO)C(=O)N[C@@H](CC(N)=O)C(=O)N[C@@H](CCCNC(=N)N)C(=O)N[C@@H](CCN)C(=O)N[C@@H]([C@@H](C)O)C(=O)N[C@H](CCN)C(=O)N[C@@H](CCCCN)C(=O)N[C@@H](CCCN)C(=O)N[C@@H](CO)C(=O)N[C@H](C(=O)N[C@@H](Cc2ccc(O)cc2)C(=O)O)CSSC1(C)C [Example 55, Val-Hyp-Ile-Pen-Tyr-Ser-Asn-Arg-Dab-Thr-^DDab-Lys-Orn-Ser-Cys-Tyr] (H-V[Hyp]I[Pen]YSNR[Dab]T[dDab]K[Orn]SCY-OH; disulfide 4-15)
Escherichia coli ATCC 25922 MIC [1]: 0.25 µg/mL | Escherichia coli MCR-1 Af45 MIC [2]: 0.25 µg/mL | Klebsiella pneumoniae SSI3010 MIC [3]: 0.5 µg/mL | Hemolysis at 0.2 g/L [4]: <1%

CC[C@H](C)[C@H](NC(=O)[C@@H]1C[C@@H](O)CN1C(=O)[C@@H](NC(=N)N)C(C)C)C(=O)N[C@@H]1C(=O)N[C@@H](Cc2ccc(O)cc2)C(=O)N[C@@H](CO)C(=O)N[C@@H](CC(N)=O)C(=O)N[C@@H](CCCNC(=N)N)C(=O)N[C@@H](CCN)C(=O)N[C@@H]([C@@H](C)O)C(=O)N[C@H](CCN)C(=O)N[C@@H](CCCCN)C(=O)N[C@@H](CCCN)C(=O)N[C@@H](CO)C(=O)N[C@H](C(=O)N[C@@H](Cc2ccc(O)cc2)C(=O)O)CSSC1(C)C [Example 77, Gua-Val-Hyp-Ile-Pen-Tyr-Ser-Asn-Arg-Dab-Thr-^DDab-Lys-Orn-Ser-Cys-Tyr] ({Val(Nα-amidino)}-[Hyp]I[Pen]YSNR[Dab]T[dDab]K[Orn]SCY-OH; disulfide 3-14)
Escherichia coli ATCC 25922 MIC [1]: 0.25 µg/mL | Escherichia coli MCR-1 Af45 MIC [2]: 0.5 µg/mL | Klebsiella pneumoniae SSI3010 MIC [3]: 0.25 µg/mL | Hemolysis at 0.2 g/L [4]: <1%

CC[C@H](C)[C@H](NC(=O)[C@@H]1C[C@@H](O)CN1C(=O)[C@@H](NC(=N)N)C(C)C)C(=O)N[C@H]1CCNC(=O)CC[C@@H](C(=O)N[C@@H](Cc2ccc(O)cc2)C(=O)O)NC(=O)[C@H](CCN)NC(=O)[C@H](CCN)NC(=O)[C@H](CO)NC(=O)[C@@H](CCN)NC(=O)[C@H]([C@@H](C)O)NC(=O)[C@H](CCN)NC(=O)[C@H](CCCNC(=N)N)NC(=O)[C@H](CC(N)=O)NC(=O)[C@H]([C@@H](C)O)NC(=O)[C@H](Cc2ccc(O)cc2)NC1=O [Example 112, Gua-Val-Hyp-Ile-Dab-Tyr-Thr-Asn-Arg-Dab-Thr-^DDab-Ser-Dab-Dab-Glu-Tyr] ({Val(Nα-amidino)}-[Hyp]I[Dab]YTNR[Dab]T[dDab]S[Dab][Dab]EY-OH; lactam 3-14)
Escherichia coli ATCC 25922 MIC [1]: 0.125 µg/mL | Escherichia coli MCR-1 Af45 MIC [2]: 0.125 µg/mL | Klebsiella pneumoniae SSI3010 MIC [3]: 0.25 µg/mL | Hemolysis at 0.2 g/L [4]: <1%

CC[C@H](C)[C@H](NC(=O)[C@@H]1C[C@@H](O)CN1C(=O)[C@@H](N)C(C)C)C(=O)N[C@@H]1C(=O)N[C@@H](Cc2ccc(O)cc2)C(=O)N[C@@H](CO)C(=O)N[C@@H](CC(N)=O)C(=O)N[C@@H](CCCNC(=N)N)C(=O)N[C@@H](CO)C(=O)N[C@@H]([C@@H](C)O)C(=O)N[C@H](CCN)C(=O)N[C@@H](CCCCN)C(=O)N[C@@H](CCN)C(=O)N[C@@H](CCN)C(=O)N[C@H](C(=O)N[C@@H](Cc2ccc(O)cc2)C(=O)O)CSSC1(C)C [Example 29, Val-Hyp-Ile-Pen-Tyr-Ser-Asn-Arg-Ser-Thr-^DDab-Lys-Dab-Dab-Cys-Tyr] (H-V[Hyp]I[Pen]YSNRST[dDab]K[Dab][Dab]CY-OH; disulfide 4-15)
Escherichia coli ATCC 25922 MIC [1]: 0.25 µg/mL | Escherichia coli MCR-1 Af45 MIC [2]: 0.125 µg/mL | Klebsiella pneumoniae SSI3010 MIC [3]: 0.5 µg/mL | Hemolysis at 0.2 g/L [4]: <1%

CC[C@H](C)[C@H](NC(=O)[C@@H]1C[C@@H](O)CN1C(=O)[C@@H](NC(=N)N)C(C)C)C(=O)N[C@@H]1C(=O)N[C@@H](Cc2ccc(O)cc2)C(=O)N[C@@H]([C@@H](C)O)C(=O)N[C@@H](CC(N)=O)C(=O)N[C@@H](CCCNC(=N)N)C(=O)N[C@@H](CCN)C(=O)N[C@@H]([C@@H](C)O)C(=O)N[C@H](CCN)C(=O)N[C@@H](CCCCN)C(=O)N[C@@H](CCN)C(=O)N[C@@H](CCN)C(=O)N[C@H](C(=O)N[C@@H](Cc2ccc(O)cc2)C(=O)O)CSSC1(C)C [Example 68, Gua-Val-Hyp-Ile-Pen-Tyr-Thr-Asn-Arg-Dab-Thr-^DDab-Lys-Dab-Dab-Cys-Tyr] ({Val(Nα-amidino)}-[Hyp]I[Pen]YTNR[Dab]T[dDab]K[Dab][Dab]CY-OH; disulfide 3-14)
Escherichia coli ATCC 25922 MIC [1]: 0.0625 µg/mL | Escherichia coli MCR-1 Af45 MIC [2]: 0.03125 µg/mL | Klebsiella pneumoniae SSI3010 MIC [3]: 0.125 µg/mL | Hemolysis at 0.2 g/L [4]: <1%
